Results taken from article PMC10265666, “Lung SPLUNC1 Peptide Derivatives in the Lipid Membrane Headgroup Kill Gram-Negative Planktonic and Biofilm Bacteria” (Biomacromolecules, 2023).
Several values for one entry are separate records, joined by “and”; a condition that tells them apart may be missing. Identical values can stand only once.

Tests used:
[1] = test system: Klebsiella pneumoniae biofilms; assay: Biofilm growth (crystal violet); assay type: cell-based
Experimental: Minimum inhibitory concentration (MIC, defined as the minimum AMP concentration to prevent bacterial growth) and biofilm data were obtained by UV–vis spectroscopy using a BioTek Epoch 2 microplate reader.
The planktonic samples in the wells were then drained by inversion of the plate. The plate was washed with PBS prior to staining with 125 μL of 0.5% Crystal Violet (in 20% ethanol) for 15 min. Excess stain was removed by washing twice with distilled water. The bacterial remnants on the walls of the wells were analyzed at λ = 620 nm to observe any adhered bacteria. The absorbance values as percent of control (no AMP) do show a tendency of bacterial adherence to the wells. In this work, we will refer to the adhered bacteria after incubation at 37 °C for 16 h as biofilms.

[2] = Circular dichroism secondary structure in G(−)IM ULVs; assay type: physicochemical; details: 10 μM peptide, 15 mM PBS pH 7, 37 °C
Experimental: Unilamellar vesicles (ULVs) of ∼600 Å diameter were prepared using an Avanti extruder: 200 μL of 20 mg/ml G(−)IM lipid in 15 mM PBS was extruded 21 times through Nucleopore filters of size 500 Å using 0.2 mL Hamilton syringes in the Avanti extruder. The final concentration of G(−)IM lipid in the ULVs was determined gravimetrically to be 15 mg/ml. Concentrated ULVs were added to 3 mL of 10 μM peptide in 15 mM PBS at pH 7 to create lipid/peptide molar ratios between 0:1 and 70:1. The samples remained at room temperature for ∼16 h before the CD measurement. Data were collected in 3 mL quartz cuvettes using a Jasco 1500 CD spectrophotometer at 37 °C in the Center for Nucleic Acids Science and Technology at Carnegie Mellon University. The samples were scanned from 200 to 240 nm 20 times, and the ellipticity (ϵ) results were averaged. Temperature was controlled at 37 °C via a Peltier element and water circulation through the sample compartment. Nitrogen gas was used at a flow rate between 20 and 25 ft^3/h (CFH). The parameters for scanning were: speed 100 nm/min, step size 1.0 nm, response time 1 second, bandwidth 1 nm, and sensitivity of 20 mdeg. OriginPro 2019 (OriginLab, Northampton, MA) was used to carry out a linear least-squares fit of the smoothed ellipticity traces to four secondary structural motifs representing α-helix, β-sheet, β-turn, and random coil.[20] This analysis gives a percentage match of each of the secondary structural motifs to the total sample ellipticity. Data were finally converted to mean residue ellipticity, taking into account the peptide concentration (10 μMolar) and number of amino acids (N), using the equation: MRE = (10^4/N)ϵ deg cm^2/dmol.

[3] = Circular dichroism secondary structure in Euk33 ULVs; assay type: physicochemical; details: 10 μM peptide, 15 mM PBS pH 7, 37 °C
[4] = test system: eukaryotic cells vs bacteria; assay: Therapeutic index (eukaryotic cell kill concentration / bacterial kill concentration); assay type: cell-based
Experimental: But more important than cytotoxicity is the therapeutic index (TI), which is the concentration at which ≥90% of eukaryotic cells are killed divided by the concentration at which ≥90% of bacteria are killed. For A4-153, this TI value is an estimated ≈ 128 μM/16 μM ≈ 8. TI for A4-157 is an estimated 128 μM/24 μM ≈ 5, and the TI for A4-183 is an estimated 64 μM/20 μM ≈ 3.

[5] = G(−)IM/peptide molar ratio 10:1
[6] = G(−)IM/peptide molar ratio 15:1
[7] = G(−)IM/peptide molar ratio 20:1
[8] = G(−)IM/peptide molar ratio 30:1
[9] = G(−)IM/peptide molar ratio 50:1
[10] = G(−)IM/peptide molar ratio 70:1

With `CC[C@H](C)[C@H](NC(=O)[C@@H](NC(=O)[C@H](CO)NC(=O)[C@H](CCCCN)NC(=O)[C@@H](NC(=O)[C@H](CCCCN)NC(=O)CNC(=O)[C@H](Cc1c[nH]c2ccccc12)NC(=O)[C@@H](NC(=O)CNC(=O)CNC(=O)[C@@H](NC(=O)[C@H](Cc1c[nH]c2ccccc12)NC(=O)CNC(=O)[C@H](CCCCN)NC(=O)[C@@H](NC(=O)[C@H](CCCCN)NC(=O)[C@H](CCCCN)NC(=O)[C@H](Cc1ccccc1)NC(=O)[C@H](Cc1ccccc1)NC(=O)[C@H](CCCCN)NC(=O)[C@H](CCCCN)NC(=O)[C@@H](N)CC(C)C)C(C)C)C(C)C)C(C)C)C(C)C)C(C)C)C(=O)N[C@@H](CCCCN)C(=O)O` (stereo in doubt) [A4-153] the “prevention of biofilm formation” value ([1]; 25 K. pneumoniae substrains, 16 h at 37 °C, crystal violet, 620 nm) was “generally more efficient than the other peptides at preventing biofilm formation”, the “number of colistin-resistant substrains in which the peptide was the most effective at inhibiting biofilm formation” value ([1]; out of 11 colistin-resistant substrains, at ∼16 μM) was “eight” and the “number of colistin-susceptible substrains in which the peptide was the most effective at inhibiting biofilm formation” value ([1]; out of 13 colistin-susceptible substrains, at ∼16 μM) was “seven”. It also gave a Random ([2]; G(−)IM/peptide molar ratio 0:1) of 57.7%, a α-helix ([2]; G(−)IM/peptide molar ratio 0:1) of 6.4% and a β-sheet ([2]; G(−)IM/peptide molar ratio 0:1) of 34.2%. For the same molecule, the β-turn ([2]; G(−)IM/peptide molar ratio 0:1) was 1.7%, the Random ([2]; G(−)IM/peptide molar ratio 1:1) was 51.7% and the α-helix ([2]; G(−)IM/peptide molar ratio 1:1) was 11.9%. It also gave a β-sheet ([2]; G(−)IM/peptide molar ratio 1:1) of 32.4%, a β-turn ([2]; G(−)IM/peptide molar ratio 1:1) of 4.0% and a Random ([2]; G(−)IM/peptide molar ratio 5:1) of 62.9%. It also gave a α-helix ([2]; G(−)IM/peptide molar ratio 5:1) of 10.2%, a β-sheet ([2]; G(−)IM/peptide molar ratio 5:1) of 26.9% and a β-turn ([2]; G(−)IM/peptide molar ratio 5:1) of 0%. The Random [2, 5] was 62.5%, the α-helix [2, 5] was 14.8% and the β-sheet [2, 5] was 17.7%. For the same molecule, the β-turn [2, 5] was 5.0%, the Random [2, 6] was 15.6% and the α-helix [2, 6] was 41.9%. It also gave a β-sheet [2, 6] of 41.2%, a β-turn [2, 6] of 1.3% and a Random [2, 7] of 0%. The α-helix [2, 7] was 78.3%, the β-sheet [2, 7] was 8.0% and the β-turn [2, 7] was 13.7%. For the same molecule, the Random [2, 8] was 4.6%, the α-helix [2, 8] was 78.5% and the β-sheet [2, 8] was 10.2%. For the same molecule, the β-turn [2, 8] was 6.7%, the Random [2, 9] was 0% and the α-helix [2, 9] was 77.4%. It also gave a β-sheet [2, 9] of 13.6%, a β-turn [2, 9] of 9.0% and a Random [2, 10] of 0%. It also gave a α-helix [2, 10] of 64.1%, a β-sheet [2, 10] of 15.1% and a β-turn [2, 10] of 20.8%. For the same molecule, the Random ([3]; Euk33/peptide molar ratio 0:1) was 57.7%, the α-helix ([3]; Euk33/peptide molar ratio 0:1) was 6.4% and the β-sheet ([3]; Euk33/peptide molar ratio 0:1) was 34.2%. The β-turn ([3]; Euk33/peptide molar ratio 0:1) was 1.7%, the Random ([3]; Euk33/peptide molar ratio 5:1) was 66.2% and the α-helix ([3]; Euk33/peptide molar ratio 5:1) was 9.7%. It also gave a β-sheet ([3]; Euk33/peptide molar ratio 5:1) of 24.1%, a β-turn ([3]; Euk33/peptide molar ratio 5:1) of 0% and a Random ([3]; Euk33/peptide molar ratio 10:1) of 64.2%. For the same molecule, the α-helix ([3]; Euk33/peptide molar ratio 10:1) was 12.2%, the β-sheet ([3]; Euk33/peptide molar ratio 10:1) was 23.6% and the β-turn ([3]; Euk33/peptide molar ratio 10:1) was 0%. For the same molecule, the Random ([3]; Euk33/peptide molar ratio 20:1) was 60.4%, the α-helix ([3]; Euk33/peptide molar ratio 20:1) was 14.1% and the β-sheet ([3]; Euk33/peptide molar ratio 20:1) was 25.5%. For the same molecule, the β-turn ([3]; Euk33/peptide molar ratio 20:1) was 0%, the Random ([3]; Euk33/peptide molar ratio 30:1) was 57.5% and the α-helix ([3]; Euk33/peptide molar ratio 30:1) was 16.2% and 16%. It also gave a β-sheet ([3]; Euk33/peptide molar ratio 30:1) of 26.3%, a β-turn ([3]; Euk33/peptide molar ratio 30:1) of 0% and a Random ([3]; Euk33/peptide molar ratio 70:1) of 51.3%. For the same molecule, the α-helix ([3]; Euk33/peptide molar ratio 70:1) was 20.5%, the β-sheet ([3]; Euk33/peptide molar ratio 70:1) was 28.2% and the β-turn ([3]; Euk33/peptide molar ratio 70:1) was 0%. For the same molecule, the “concentration at which ≥90% of bacteria are killed” value ([4]; denominator of TI) was 16 µM and the “concentration at which ≥90% of eukaryotic cells are killed (estimated)” value ([4]; numerator of TI) was “≈ 128 μM”.
